{
  "source": "paper PMC9181795",
  "about": "“Ibuprofen Favors Binding of Amyloid-β Peptide to Its Depot, Serum Albumin” (International Journal of Molecular Sciences, 2022)",
  "key": {"[1]": {"design": "method as in doi:10.3109/03639048309039887, PMID 10714613", "settings": "pH values above 7; ref [22],[23]; cited from earlier work"}, "Aβ40(A21G)": {"test_system": "Aβ40(A21G)", "experiment": "ThT fluorescence assay, Aβ40(A21G) fibrillation", "type": "biochemical, human", "settings": "20 µM IBU, 20 µM Aβ40(A21G), no HSA, 30 °C, pH 7.4", "experimental": "ThT fluorescence emission measurements were carried out using a BioTek Synergy H1 multimode microplate reader and Greiner Bio-One non-binding microplates #781906 mainly as described in ref. [11]. […] ThT fluorescence was excited at 440 nm and emission at 485 nm was measured for 190 h every 30 min, with orbital shaking prior to each measurement. […] The lag time, tlag, is calculated as (t0 − 2/kapp)."}, "AD": {"test_system": "AD", "design": "method as in 2 sources, one per row (each row's own in cited_ref): ref [36],[37],[38] = [36]; PMID 11794217; doi:10.1056/NEJMoa010178; 36. In’T Veld B.A. Ruitenberg A. Hofman A. Launer L.J. Van Duijn C.M. Stijnen T. Breteler M.M. Stricker B.H. Nonsteroidal antiinflammatory drugs and the risk of Alzheimer’s disease N. Engl. J. Med. 20 || [37]; PMID 18458226; doi:10.1212/01.wnl.0000311269.57716.63; 37. Vlad S.C. Miller D.R. Kowall N.W. Felson D.T. Protective effects of NSAIDs on the development of Alzheimer disease Neurology 2008 70 1672 1677 10.1212/01.wnl.0000311269.57716.63 18458226 PMC275824 || [38]; PMID 25227314; doi:10.3233/JAD-141506; 38. Wang J. Tan L. Wang H.F. Tan C.C. Meng X.F. Wang C. Tang S.W. Yu J.T. Anti-inflammatory drugs and risk of Alzheimer’s disease: An updated systematic review and meta-analysis J. Alzheimers Dis. 201 ||| ref [36],[37],[73] = [36]; PMID 11794217; doi:10.1056/NEJMoa010178; 36. In’T Veld B.A. Ruitenberg A. Hofman A. Launer L.J. Van Duijn C.M. Stijnen T. Breteler M.M. Stricker B.H. Nonsteroidal antiinflammatory drugs and the risk of Alzheimer’s disease N. Engl. J. Med. 20 || [37]; PMID 18458226; doi:10.1212/01.wnl.0000311269.57716.63; 37. Vlad S.C. Miller D.R. Kowall N.W. Felson D.T. Protective effects of NSAIDs on the development of Alzheimer disease Neurology 2008 70 1672 1677 10.1212/01.wnl.0000311269.57716.63 18458226 PMC275824 || [73]; PMID 33134914; doi:10.1093/braincomms/fcaa109; 73. Rivers-Auty J. Mather A.E. Peters R. Lawrence C.B. Brough D. Anti-inflammatories in Alzheimer’s disease—potential therapy or spurious correlate? Brain Commun. 2020 2 fcaa109 10.1093/braincomms/fca", "settings": "cited from earlier work"}},
  "data": [
    {"smiles": "CC(C)Cc1ccc(C(C)C(=O)O)cc1", "note": "(centres unmarked) [IBU, 2-[4-(2-methylpropyl)phenyl]propanoic acid]", "values": [
      {"measurement": "water solubility", "setting": "[1]", "value": "100 to 1000", "unit": "mM"},
      {"measurement": "suppression of fibrillation by IBU alone", "setting": "Aβ40(A21G)", "value": "does not induce statistically significant suppression of the fibrillation process"},
      {"measurement": "effect of IBU on HSA affinity to Aβ compared with serotonin", "setting": "HSA–Aβ interaction", "value": "lower than the effect for serotonin"},
      {"measurement": "rates of AD among people taking IBU for chronic treatment of inflammatory conditions", "setting": "AD; ref [36],[37],[73]", "value": "lower rates of AD"},
      {"measurement": "AD protection with long-term use of nonsteroidal anti-inflammatory drugs, including IBU", "setting": "AD; retrospective studies, ref [36],[37],[38]", "value": "protective against AD"}
    ]}
  ]
}
